Laboratory results: patent US20240425865A1, “METHODS FOR TREATING CELLULAR INFLAMMATION INDUCED BY AFB1” (priority 2023, published 2024)

What was measured:
RelA [1] = experiment: Western blot of RelA in MPC-5 cells treated with AFB1; type: cell-based
Method: To investigate whether RelA is involved in the reduction of the expression level of miR-9 in glomerular podocytes by AFB1, relative protein expression levels of RelA in glomeruli at 0, 2, and 4 weeks treated with AFB1 of 0.75 mg/kg, and MPC-5 cells treated with AFB1 of 5, 10, 20 uM were detected, respectively, by adopting a Western blot manner.

RelA / miR-9 promoter = type: cell-based
RelA / TRIM7 = RelA / TRIM7 (Mus musculus, UniProt Q04207); type: cell-based
RelA / TRIM7, sequence (Q04207 whole entry, looked up): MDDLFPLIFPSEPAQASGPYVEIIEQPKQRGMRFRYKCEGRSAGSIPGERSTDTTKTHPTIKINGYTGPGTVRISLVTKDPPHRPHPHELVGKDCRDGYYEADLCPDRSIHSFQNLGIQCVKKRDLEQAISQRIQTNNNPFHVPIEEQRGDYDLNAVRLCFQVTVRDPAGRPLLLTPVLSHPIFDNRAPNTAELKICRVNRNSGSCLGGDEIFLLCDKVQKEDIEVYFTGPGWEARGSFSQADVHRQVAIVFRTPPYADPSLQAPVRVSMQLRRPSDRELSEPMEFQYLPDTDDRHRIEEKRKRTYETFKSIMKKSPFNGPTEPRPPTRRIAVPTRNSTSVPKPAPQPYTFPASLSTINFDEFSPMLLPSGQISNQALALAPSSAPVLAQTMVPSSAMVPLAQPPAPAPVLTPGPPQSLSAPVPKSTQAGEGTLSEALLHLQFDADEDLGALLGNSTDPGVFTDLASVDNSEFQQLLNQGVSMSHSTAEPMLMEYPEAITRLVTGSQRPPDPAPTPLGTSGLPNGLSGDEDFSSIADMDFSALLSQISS

miR-9 [2] = experiment: qRT-PCR of miR-9 in MPC-5 treated with AFB1; type: cell-based
Method: • (1) glomeruli (n=6) were treated with AFB1 of 0.75 mg/kg at 0, 2, and 4 weeks; • (2) MPC-5 (n=6) was treated with AFB1 of 5, 10, and 20μ M; • (3) Relative expression levels of miR-9 in the glomeruli treated with (1) and in the MPC-5 treated with (2) were detected by adopting a qRT-PCR manner, respectively. u6 RNA was used as an internal reference for miRNA, a sequence of a forward primer of U6 gene was shown in SEQ ID NO.1 in Table 1, and a sequence of a reverse primer of U6 gene was shown in SEQ ID NO.2. A sequence of a forward primer of miR-9 was shown in SEQ ID NO.3, a sequence of a reverse primer of miR-9 was shown in SEQ ID NO.4, and a sequence of a primer of a stem-loop sequence that is used to increase a length of a miR-9 reverse transcription product was shown in SEQ ID No.45.

RelA [3] = biological target: RelA (Mus musculus, UniProt Q04207); experiment: IP-MS of proteins interacting with RelA in MPC-5 cells; type: cell-based
RelA (Mus musculus, UniProt Q04207), sequence (Q04207 whole entry, looked up): as above
Method: For the analysis of RelA-binding proteins, IP-MS was used to detect proteins interacting with RelA. After incubating THE MPC-5 cells with RelA antibody overnight at 4° C., MPC-5 lysates were mixed with Protein A/G agarose beads (Amersham Biosciences) and then sodium dodecyl sulfate-polyacrylamide gel electrophoresis (SDS-PAGE) analysis and Caumas blue staining were performed for isolation of target proteins. Then, protein samples were sent to Suzhou Mass-elife Biotechnology Co. Ltd (Suzhou, China) for further analysis. For liquid chromatography-mass spectrometry (LC-MS) analysis, proteins were re-solubilized in a mixture of acetonitrile and water, and sample data was analyzed using an ultra-high-performance liquid chromatography (UHPLC) system coupled to a high-resolution mass spectrometer in Mass-elife Biotech Co. Ltd. of Suzhou (Suzhou, China). Identified proteins were analyzed for abundance using Byonic 2.13.17 (Protein Metrics, California, USA) to retrieve MS raw files on the uniport human protein database.

miR-9 [4] = conditions: mouse, in vivo, 0.75 mg/kg
RelA [5] = conditions: mouse, in vivo, 0.75 mg/kg
glomeruli = experiment: rAAV9-CAG-GFP-miR-9 transfection of AFB1-treated mouse, glomeruli readouts; type: in vivo; conditions: miR-9 increased via rAAV9-CAG-GFP-miR-9
Method: Relevant agents include fluorescently labeled Gr-1 antibody (CST), fluorescently labeled IFN-γ antibody (CST) or CD86 antibody (fluorescent secondary antibody: goat anti-rabbit IgG) (Abcam) and CD68 antibody (fluorescently secondary antibody: goat anti-rabbit IgG) (Abcam), and the rest of the same agents as above.
To understand the ability of miR-9 in down-regulating the CXCR4/TXNIP/NLRP3 inflammatory vesicle pathway during podocytes inflammation induced by AFB1, a 4-week-old mouse was treated with AFB1 of 0.75 mg/kg, and rAAV9-CAG-GFP-miR-9 or CAG-GFP luciferase control vector was transfected into the treated mouse, and an expression level of miR-9 in glomeruli after transfection was detected by qRT-PCR.

3′-UTR of CXCR4 gene = experiment: luciferase reporter (pMIR) with CXCR4 3′-UTR, co-transfection in MPC-5 cells; type: cell-based; conditions: FIG. 1C
Source text: To validate the binding of miR-9 to the CXCR4 gene, 3′-UTR targeting sequences of a wild-type CXCR4 gene and a mutant-type CXCR4 gene (target site ACCAAAG was mutated to ACGGCGC) were constructed into a luciferase reporter vector pMIR to obtain recombinant luciferase reporter vectors of the wild-type and the mutant-type. Subsequently, miR-9 and negative control miRNAs (a sequence of a primer as shown in SEQ ID NO.7 and SEQ ID NO.8) were co-transfected with the recombinant luciferase reporter vector of the wild-type or the mutant type into MPC-5 cells, and results were as shown in FIG. 1C. […] The control miRNAs were unable to targetedly bind to either the 3′-UTR of the wild-type CXCR4 or the 3′-UTR of the mutant-type CXCR4, and the fluorescence values were […].

Substance | p-RelA/RelA in MPC-5 cells (RelA [1]) | RelA binding in the miR-9 promoter region (RelA / miR-9 promoter) | binding of RelA and TRIM7 (RelA / TRIM7) | expression level of RelA protein (RelA / TRIM7) | ubiquitination of RelA (RelA / TRIM7) | expression level of miR-9 in cells (MPC-5) (miR-9 [2]) | TRIM7 among RelA-interacting proteins (RelA [3]) | expression level of miR-9 in glomeruli (miR-9 [4]) | p-RelA/RelA in glomeruli (RelA [5]) | secretion of IL-1β in glomeruli (glomeruli; AFB1-treated mouse, ELISA) | secretion of IL-6 in glomeruli (glomeruli; AFB1-treated mouse, ELISA) | secretion of TNF-α in glomeruli (glomeruli; AFB1-treated mouse, ELISA) | inflammatory cell infiltration in glomeruli (glomeruli; AFB1 for 4 weeks, HE staining and flow cytometry) | luciferase fluorescence values, wild-type CXCR4 3′-UTR reporter (3′-UTR of CXCR4 gene; co-transfected into MPC-5 cells) | luciferase fluorescence values, mutant-type CXCR4 3′-UTR reporter (3′-UTR of CXCR4 gene; target site ACCAAAG mutated to ACGGCGC, MPC-5 cells)
Aflatoxin B1 [AFB1] | significant reduction | reduced RelA binding | promoted the binding | down-regulated | increased the ubiquitination | significantly reduced | significantly enriched | significantly reduced | significant reduction | – | – | – | – | – | –
miR-9: mmu-miR-9-5p MIMAT0000142; nucleotide sequence shown in SEQ ID No. 5 (UCUUUGGUUAUCUAGCUGUAUGA; chemistry not given here) | – | – | – | – | – | – | – | – | – | decreased secretion | decreased secretion | decreased secretion | attenuated inflammatory cell infiltration | relative decrease | unchanged
